Test results taken from ChEMBL document CHEMBL1275476, “Emergence of macrolide resistance gene mph(B) in Streptococcus uberis and cooperative effects with rdmC-like gene” (2008).
≈ marks a conversion by molar mass, not a printed value.

Columns and labels:
Type in all cases: functional
Streptococcus uberis [1] = test: Antimicrobial activity against Streptococcus uberis UCN60 expressing mph(B) and rdmC-like genes by broth microdilution method
Streptococcus uberis [2] = test: Antimicrobial activity against Streptococcus uberis UCN61 by broth microdilution method
Escherichia coli [3] = test: Antimicrobial activity against Escherichia coli AG100A harboring pAT392 containing rdmC-like gene by broth microdilution method
Enterococcus faecalis [4] = test: Antimicrobial activity against Enterococcus faecalis JH2-2 harboring pAT392 containing mph(B) gene by broth microdilution method
Staphylococcus aureus [5] = test: Antimicrobial activity against Staphylococcus aureus RN4220 harboring pAT392 containing rdmC-like gene by broth microdilution method
Staphylococcus aureus [6] = test: Antimicrobial activity against Staphylococcus aureus RN4220 harboring pAT392 containing mph(B) gene by broth microdilution method
Staphylococcus aureus [7] = test: Antimicrobial activity against Staphylococcus aureus RN4220 harboring empty vector by broth microdilution method
Escherichia coli [8] = test: Antimicrobial activity against Escherichia coli AG100A harboring empty vector by broth microdilution method
Escherichia coli [9] = test: Antimicrobial activity against Escherichia coli AG100A harboring pAT392 containing mph(B) and rdmC-like genes by broth microdilution method
Enterococcus faecalis [10] = test: Antimicrobial activity against Enterococcus faecalis JH2-2 harboring empty vector by broth microdilution method
Enterococcus faecalis [11] = test: Antimicrobial activity against Enterococcus faecalis JH2-2 harboring pAT392 containing rdmC-like gene by broth microdilution method
Escherichia coli [12] = test: Antimicrobial activity against Escherichia coli AG100A harboring pAT392 containing mph(B) gene by broth microdilution method
Staphylococcus aureus [13] = test: Antimicrobial activity against Staphylococcus aureus RN4220 harboring pAT392 containing mph(B) and rdmC-like genes by broth microdilution method
Enterococcus faecalis [14] = test: Antimicrobial activity against Enterococcus faecalis JH2-2 harboring pAT392 containing mph(B) and rdmC-like gene by broth microdilution method

| Compound | MIC (Streptococcus uberis [1]) [µg/mL] | MIC (Streptococcus uberis [2]) [µg/mL] | MIC (Escherichia coli [3]) [µg/mL] | MIC (Enterococcus faecalis [4]) [µg/mL] | MIC (Staphylococcus aureus [5]) [µg/mL] | MIC (Staphylococcus aureus [6]) [µg/mL] | MIC (Staphylococcus aureus [7]) [µg/mL] | MIC (Escherichia coli [8]) [µg/mL] | MIC (Escherichia coli [9]) [µg/mL] | MIC (Enterococcus faecalis [10]) [µg/mL] | MIC (Enterococcus faecalis [11]) [µg/mL] | MIC (Escherichia coli [12]) [µg/mL] | MIC (Staphylococcus aureus [13]) [µg/mL] | MIC (Enterococcus faecalis [14]) [µg/mL] |
| --- | --- | --- | --- | --- | --- | --- | --- | --- | --- | --- | --- | --- | --- | --- |
| CC[C@H]1OC(=O)[C@H](C)[C@@H](O[C@H]2C[C@@](C)(OC)[C@@H](O)[C@H](C)O2)[C@H](C)[C@@H](O[C@@H]2O[C@H](C)C[C@H](N(C)C)[C@H]2O)[C@](C)(O)C[C@@H](C)CN(C)[C@H](C)[C@@H](O)[C@]1(C)O [AZITHROMYCIN] | 0.12 (≈ 0.16 µM) | 0.12 (≈ 0.16 µM) |  |  |  |  |  |  |  |  |  |  |  |  |
| CCC[C@@H]1C[C@@H](C(=O)N[C@@H]([C@H]2O[C@H](SC)[C@H](O)[C@@H](O)[C@H]2O)[C@H](C)Cl)N(C)C1 [CLINDAMYCIN] | 0.03 (≈ 0.0706 µM) | 0.03 (≈ 0.0706 µM) | 2 (≈ 4.71 µM) | 2 (≈ 4.71 µM) | 0.06 (≈ 0.141 µM) | 0.06 (≈ 0.141 µM) | 0.06 (≈ 0.141 µM) | 2 (≈ 4.71 µM) | 2 (≈ 4.71 µM) | 2 (≈ 4.71 µM) | 2 (≈ 4.71 µM) | 2 (≈ 4.71 µM) | 0.06 (≈ 0.141 µM) | 2 (≈ 4.71 µM) |
| CC[C@H]1OC(=O)[C@H](C)[C@@H](O[C@H]2C[C@@](C)(OC)[C@@H](O)[C@H](C)O2)[C@H](C)[C@@H](O[C@@H]2O[C@H](C)C[C@H](N(C)C)[C@H]2O)[C@](C)(O)C[C@@H](C)C(=O)[C@H](C)[C@@H](O)[C@]1(C)O [ERYTHROMYCIN] | 0.06 (≈ 0.0818 µM) | 0.06 (≈ 0.0818 µM) | 2 (≈ 2.73 µM) | 0.25 (≈ 0.341 µM) | 0.25 (≈ 0.341 µM) | 0.25 (≈ 0.341 µM) | 0.25 (≈ 0.341 µM) | 2 (≈ 2.73 µM) | 64 (≈ 87.2 µM) | 0.25 (≈ 0.341 µM) | 0.25 (≈ 0.341 µM) | 64 (≈ 87.2 µM) | 0.25 (≈ 0.341 µM) | 0.25 (≈ 0.341 µM) |
| CO[C@@H]1[C@@H](O[C@@H]2O[C@H](C)[C@@H](O[C@H]3C[C@@](C)(O)[C@@H](OC(=O)CC(C)C)[C@H](C)O3)[C@H](N(C)C)[C@H]2O)[C@@H](CC=O)C[C@@H](C)[C@@H](O)/C=C/C=C/C[C@@H](C)OC(=O)C[C@H]1OC(C)=O [JOSAMYCIN] | 0.25 (≈ 0.302 µM) | 0.25 (≈ 0.302 µM) | 8 (≈ 9.66 µM) | 1 (≈ 1.21 µM) | 1 (≈ 1.21 µM) | 1 (≈ 1.21 µM) | 1 (≈ 1.21 µM) | 8 (≈ 9.66 µM) | 16 (≈ 19.3 µM) | 1 (≈ 1.21 µM) | 1 (≈ 1.21 µM) | 16 (≈ 19.3 µM) | 1 (≈ 1.21 µM) | 1 (≈ 1.21 µM) |
| CC[C@H]1OC(=O)C[C@@H](O)[C@H](C)[C@@H](O[C@@H]2O[C@H](C)[C@@H](O[C@H]3C[C@@](C)(O)[C@@H](O)[C@H](C)O3)[C@H](N(C)C)[C@H]2O)[C@@H](CC=O)C[C@@H](C)C(=O)/C=C/C(C)=C/[C@@H]1CO[C@@H]1O[C@H](C)[C@@H](O)[C@@H](OC)[C@H]1OC [TYLOSIN] | 0.5 (≈ 0.546 µM) | 0.5 (≈ 0.546 µM) | 16 (≈ 17.5 µM) | 1 (≈ 1.09 µM) | 1 (≈ 1.09 µM) | 1 (≈ 1.09 µM) | 1 (≈ 1.09 µM) | 16 (≈ 17.5 µM) | > 128 | 1 (≈ 1.09 µM) | 1 (≈ 1.09 µM) | 128 (≈ 140 µM) | 16 (≈ 17.5 µM) | 16 (≈ 17.5 µM) |
| SPIRAMYCIN | 8 | 0.5 | 200 | 8 | 4 | 8 | 4 | 8 | 1000 | 0.5 | 2 | 400 | 32 | 64 |
